Laboratory results published in patent US6608032B1, “Medicinal compositions” (Takara Shuzo Co., Ltd., priority 1999, dated 2003).

Tests used:
α-glucosidase = α-glucosidase inhibition with p-nitrophenyl-α-D-glucopyranoside; assay type: biochemical, S. cerevisiae
Protocol: (1) An α-glucosidase activity was measured by allowing α-glucosidase to act on p-nitrophenyl-α-D-glucopyranoside (a chromogenic substrate) and calorimetrically quantifying 4-nitrophenol released by hydrolysis.
10 μl of α-glucosidase solution [40 mU/ml, derived from S. cerevisiae, Sigma, dissolved in 10 mM phosphate buffer (pH 7.2 at 37° C.)] and 10 μl of a solution containing a test sample dissolved in 10 mM phosphate buffer (pH 7.2 at 37° C.) were mixed. 80 μl of a 1.5 mg/ml substrate solution [Sigma, dissolved in 10 mM phosphate buffer (pH 7.2 at 37° C.)] was added thereto to initiate the reaction. After reacting at 37° C. for 40 minutes, the absorbance at 410 nm was measured using Shimadzu uv2200. The remaining activity therein was calculated defining the activity observed without the addition of test sample as 100%.
Agarobiose, agarotetraose, agarohexaose and agarooctaose used as test samples were those prepared in Referential Example 1. Commercially available products of anhydrogalactose (Funakoshi), neoagarobiose (Sigma), neoagarotetraose (Funakoshi) and neoagarohexaose (Funakoshi) were used.

[1] = system: enzymes involved in the synthesis of prostaglandin E2 from arachidonic acid; experiment: Prostaglandin E2 generation from arachidonic acid, sample added directly to crude enzyme fraction; assay type: biochemical; settings: 1 μL of 100 mM agarobiose, 100 mM agarohexaose, 10 mM DGE or 13 mM nimesulide added to 100 μL crude enzyme fraction; FIG. 15
Protocol: 2.5 μL of 200 mM aqueous solution of glutathione, 2.5 μL of a suspension containing L-adrenaline at a concentration of 200 mM in water, and 1 μL of 100 mM aqueous solution of agarobiose, 100 mM aqueous solution of agarohexaose or 10 mM aqueous solution of DGE as a sample were added to 100 μL of the control sample from the crude enzyme fraction prepared in Example 15. 1 μL of water was added as a negative control. 1 μL of 13 mM nimesulide (Cayman, 70640) solution was added as a positive control. 1 μL of 3 mM arachidonic acid solution was then added to start the reaction. The mixture was reacted at 37° C. for 5 minutes. The reaction was stopped by heating at 100° C. for 2 minutes. The content of prostaglandin E2 in the reaction mixture was measured using Prostaglandin E2 ELISA Kit.

RAW264.7 cells = experiment: Prostaglandin E2 generation by crude enzyme fraction of RAW264.7 cells pre-treated with sample and LPS; assay type: cell-based; settings: cells treated with 200 μl of 10 mM sample per 20 ml, 5 hours before LPS
Protocol: (1) RAW264.7 cells (ATCC TIB 71) were suspended in Dulbecco's modified Eagle's medium (Bio Whittaker, 12-604F) containing 10% fetal calf serum (Gibco) at a concentration of 1×10^6 cells/ml. 20 ml of the suspension was added to a 10-cm Petri dish and the dish was incubated at 37° C. overnight in the presence of 5% CO2. 200 μl of a solution containing agarohexaose or DGE (obtained in Example 15-(2) below) at a concentration of 10 mM in water was added to the dish. The dish was incubated for 5 hours. 200 μl of a solution containing lipopolysaccharide (LPS, Sigma, L-2012) at a concentration of 100 μg/ml in water was added thereto. The dish was incubated for additional 12 hours. As a control, 200 μL of water was added in place of the sample. The cells were recovered by detaching the cells from the plate using a scraper and suspended in 0.1 M tris buffer (pH 8.0) containing 1 μg/ml pepstatin A (Sigma, P5318), 1 μg/ml leupeptin (Sigma, L2884) and 1 mM phenylmethylsulfonyl fluoride (Nacalai Tesque, 273-27). The cell membrane was destroyed by sonication. A supernatant collected by centrifugation was used as a crude enzyme fraction. The content of protein in the crude enzyme fraction was determined using Micro BCA Protein Assay Reagent (a product of Pierce sold by Takara Shuzo, P7411). 2.5 μL of 200 mM aqueous solution of glutathione (Nacalai Tesque, 170-50), 2.5 μL of a suspension containing L-adrenaline (Nacalai Tesque, 010-04) at a concentration of 200 mM in water, and 1 μL of 3 mM solution of arachidonic acid (Cayman, 90010.1) or 1 μL of 100 μg/mL solution of prostaglandin H2 (Cayman, 17020) were added to 100 μL of the sample from the crude enzyme fraction prepared as described above. The mixture was reacted at 37° C. for 30 minutes. The reaction was stopped by heating at 100° C. for 2 minutes. The content of prostaglandin E2 in the reaction mixture was measured using Prostaglandin E2 ELISA Kit (Neogen, 404110).

heme oxygenase 1 protein = experiment: Heme oxygenase 1 induction in RAW264.7 cells (Western blot); assay type: cell-based; parameters: key: − represents no band observed; increase in the intensity of the band is represented as follows:+−<+<++; increase in the intensity of the band is represented as follows:+−<+<++; increase in the intensity of the band is represented as follows:+−<+<++; settings: positive control, 5 μl of 3 mM solution in dimethyl sulfoxide per 5 ml well; 15 hours
Protocol: RAW264.7 cells (ATCC TIB 71) were suspended in Dulbecco's modified Eagle's medium (Bio Whittaker, 12-604F) containing 10% fetal calf serum (Gibco) at a concentration of 3×10^5 cells/ml. 5 ml of the suspension was added to each well of a 6-well microtiter plate and the plate was incubated at 37° C. overnight in the presence of 5% CO2. 50 μl of a solution containing agarobiose or agarohexaose in Referential Example 1 at a concentration of 20 mM, 10 mM or 5 mM in water was added to the well. The plate was incubated for 15 hours. A positive control for heme oxygenase 1 induction in which 5 μl of 3 mM solution of 15-deoxy-Δ12,14 prostaglandin J2 (Cayman Chemical, 18570) in dimethyl sulfoxide was added, and a negative control in which water was added were provided. The cells were recovered by detaching the cells from the plate using a scraper and suspended in 0.1 M tris-HCl buffer (pH 7.5) containing 0.05 mM pepstatin A (Sigma, P5318), 0.2 mM leupeptin (Sigma, L2884), 1 mM phenylmethylsulfonyl fluoride (Nacalai Tesque, 273-27), 10 mm ethylenediaminetetraacetic acid disodium salt and 0.1% Triton X-100. A supernatant obtained by centrifuging the suspension after freezing and thawing was used as a protein fraction. The content of protein in the protein fraction was determined using Micro BCA Protein Assay Reagent (a product of Pierce sold by Takara Shuzo, P7411). A sample from the protein fraction prepared as described above was mixed with an equal volume of 0.125 M tris-hydrochloride buffer (pH 6.8) containing 4% sodium lauryl sulfate (SDS), 2% 2-mercaptoethanol, 0.001% Bromophenol Blue and 20% glycerol. After treatment at 100° C. for 5 minutes, a portion corresponding to 10 μg of protein was loaded on 12.5% SDS-polyacrylamide gel and electrophoresed at a constant current of 20 mA. After electrophoresis, the gel was transferred to a PVDF membrane (Millipore, IPVH000 10) at a constant voltage of 15 V for 25 minutes using a blotting buffer (containing 48 mM tris, 39 mM glycine, 20% methanol and 0.0375% SDS) and Trans-Blot SD Cell Semi-Dry blotting apparatus (Bio-Rad) according to the attached protocol. After transferring, the PVDF membrane was blocked in a solution of Block Ace (Dainippon Pharmaceutical, UK-B25) at 4° C. overnight. After blocking, the membrane washed three times in phosphate buffered saline containing 0.1% Tween 20 for 15 minutes with gentle shaking. The membrane was reacted in phosphate buffered saline containing 10% Block Ace, 0.1% Tween 20 and 200 ng/ml of anti-heme oxygenase 1 antibody (N-19; Santa Cruz, sc-7696) at room temperature for 1 hour with gentle shaking, and then washed three times in phosphate buffered saline containing 0.1% Tween 20 for 15 minutes with gentle shaking. The membrane was reacted in phosphate buffered saline containing 10% Block Ace, 0.1% Tween 20 and 0.1% peroxidase-labeled rabbit anti-goat IgG (H+L) antibody (Zymed, 61-1620) at room temperature for 1 hour with gentle shaking, and then washed five times in phosphate buffered saline containing 0.1% Tween 20 for 15 minutes with gentle shaking. The PVDF membrane was stained using Western Blot Chemiluminescence Reagent Plus (a product of NEN Life Science Products sold by Daiichi Pure Chemicals, NEL103) according to the attached protocol and exposed to an X-ray film (Kodak, CAT165 1454). After exposure, the film was developed using FPM800 (Fuji Film).
The intensity of the band depended on the concentration of agarobiose or agarohexaose. In the table, the intensity of the band for heme oxygenase 1 protein is expressed by the mark+. Specifically, − represents no band observed, and increase in the intensity of the band is represented as follows:+−<+<++.

Row | Compound | Activity of inhibiting α-glucosidase (% remaining activity) (α-glucosidase; 5 μM) [%] | Activity of inhibiting α-glucosidase (% remaining activity) (α-glucosidase; 50 μM) [%] | Activity of inhibiting α-glucosidase (% remaining activity) (α-glucosidase; 500 μM) [%] | Activity of inhibiting α-glucosidase (% remaining activity) (α-glucosidase; 1000 μM) [%] | Activity of inhibiting α-glucosidase (% remaining activity) (α-glucosidase; 5000 μM) [%] | production of prostaglandin E2 from arachidonic acid [1] | production of prostaglandin E2, arachidonic acid added (RAW264.7 cells; FIG. 13) | production of prostaglandin E2, prostaglandin H2 added (RAW264.7 cells; FIG. 14) | Intensity of band for heme oxygenase 1 protein (heme oxygenase 1 protein)
1 | OC[C@H]1OC(O)[C@H](O)[C@@H](O[C@@H]2O[C@H]3CO[C@@H]([C@@H]2O)[C@@H]3O)[C@H]1O (stereo partly drawn) [Neoagarobiose, neoagarobiose, reference compound] | 100 | 100 | 100 | 100 | 100 |  |  |  | 
2 | OC[C@H]1O[C@@H](O)[C@H](O)[C@@H](O[C@@H]2O[C@H]3CO[C@@H]([C@@H]2O)[C@@H]3O[C@@H]2O[C@H](CO)[C@H](O)[C@H](O[C@@H]3O[C@H]4CO[C@@H]([C@@H]3O)[C@@H]4O[C@@H]3O[C@H](CO)[C@H](O)[C@H](O[C@@H]4O[C@H]5CO[C@@H]([C@@H]4O)[C@@H]5O)[C@H]3O)[C@H]2O)[C@H]1O [Neoagarohexaose, neoagarohexaose, reference compound] | 100 | 100 | 93 | 71 | 8 |  |  |  | 
3 | CS(=O)(=O)Nc1ccc([N+](=O)[O-])cc1Oc1ccccc1 [nimesulide, reference compound] |  |  |  |  |  | suppressed |  |  | 
4 | O=C1C=CC(CO)OC1O [DGE, L-glycero-1,5-epoxy-1αβ, 6-dihydroxy-cis-hex-3-en-2-one] |  |  |  |  |  | not suppressed | suppressed as compared with the control | suppressed as compared with the control | 
5 | OC[C@H]1O[C@@H](O)[C@H](O)[C@@H](O[C@@H]2O[C@H]3CO[C@@H]([C@@H]2O)[C@@H]3O[C@@H]2O[C@H](CO)[C@H](O)[C@H](O[C@@H]3O[C@H]4CO[C@@H]([C@@H]3O)[C@@H]4O)[C@H]2O)[C@H]1O [Neoagarotetraose, neoagarotetraose, reference compound] | 100 | 93 | 89 | 76 | 42 |  |  |  | 
6 | agarooctaose | 91 | 90 | 32 | 26 | 11 |  |  |  | 
7 | CCCCC/C=C/C=C1/C(=O)C=C[C@@H]1C/C=C\CCCC(=O)O [15-deoxy-Δ12,14 prostaglandin J2, reference compound] |  |  |  |  |  |  |  |  | +
8 | OC1O[C@@H]2CO[C@@H]([C@H]2O)[C@H]1O (stereo partly drawn) [Anhydrogalactose, 3,6-anhydrogalactopyranose] | 100 | 100 | 100 | 100 | 100 |  |  |  | 
